Results reported in US20260365684A1, “PHYTOSPHINGOSINE-3,4-CYCLICPHOSPHATE COMPOUND AND PHARMACEUTICAL COMPOSITION COMPRISING THE SAME” (AXCESO BIOPHARMA CO., LTD., priority 2022, published 2026).

How the values were obtained:
[1] = system: SIRT1; test: SIRT1 expression in mouse vascular cells; type: cell-based
[2] = system: Tau protein; test: Expression of Tau in brain of AD-induced animal model by fluorescence microscopy; type: in vivo; settings: mouse brain, 1 mg/kg i.p. once every 3 days for 2 weeks, FIG. 3
Description: To determine the therapeutic effect on Alzheimer's Disease (AD), the effects on amyloid beta monomer (monomeric Aβ, mAβ) and Tau protein, which are biomarkers of AD, were analyzed in an AD-induced animal model.
APP/PS/Tau transgenic mice were used as an AD-induced animal model. The compound of formula (1a-1) was administered intraperitoneally once every 3 days at a concentration of 1 mg/kg to 12-week-old transgenic mice for 2 weeks, and the expression of mAβ and Tau proteins in the mouse brain was measured after 1 and 4 weeks. After anesthetizing the mouse, the cervical region was incised with a dissecting tool, and then the occipital region was incised to remove both sides of the skull. The brain was washed with phosphate buffered saline (PBS) and fixed with 4% paraformaldehyde (Sigma, St Louis, MO, USA) for 12 hours at 4 °C. These were cut to a thickness of approximately 10 μm using a vibratome, and hippocampus and cortex sections were collected and placed in 24 wells. PBS was added to the wells containing the fixed tissue sections, and fluorescent nanoparticles (QD565, red fluorescence) conjugated with anti-amyloid antibodies and anti-Tau antibodies (Santa Cruz, USA) were added to each 2 μM, and reacted at 4 °C for 12 hours. The expression of mAβ and Tau was confirmed by fluorescence microscopy.

[3] = system: SH-SY5Y cell lines; test: Proliferation of neurons (SH-SY5Y, Parkinson's disease cell model), EZ-cytox; type: cell-based, human; settings: 5 days, FIG. 4
Description: A medium containing DMEM/F12 (Hyclone), 10% FBS (Hyclone), and 1% penicillin-streptomycin (Hyclone) was used, and the medium was replaced every two days after seeding on a T75 plate. Subculture was performed when the cell density was 80-90%.
Then, to determine the neuronal proliferation effect, the subcultured SH-SY5Y cells were seeded in 96 wells at 5×10^3 cells/well. After 1 day, the medium was replaced with a 5% FBS ratio, and the cells were treated with the compound of formula (1a-1) at concentrations serially diluted 2-fold from 500 nM to 15.6 nM and cultured for 5 days. The medium was replaced with 10% FBS containing the drug every other day. The culture medium with 10% FBS was used as a control. After 5 days, the amount of living cells was measured at 450 nm absorbance using EZ-cytox (DoGen) to compare the cell viability.

[4] = system: pluripotent stem cells; test: Differentiation of pluripotent stem cells into dopaminergic neurons; type: cell-based; settings: FIG. 5
Description: Pluripotent stem cells were seeded in Aggre Well plates (stemcell) at 5,000 cells/microwell and cultured for 5 days in E6 medium (GIBCO) to induce embryonic body (EB) formation. For neural rosette formation, EBs were seeded into 35 mm dishes in groups of 30 and cultured for 10 days in N2bF medium. The 35 mm dishes were used after being coated with 15 μg/ml of poly-L-ornithine (sigma) and 1 μg/ml of fibronectin (sigma). The N2Bf medium composition was DMEM/F12 (GIBCO), N2 supplement (stemcell) 1×, 10% NEAA (GIBCO), 55 µM beta-Mercaptoethanol (GIBCO), bFGF (peprotech) 20 ng/ml. For the formation of spherical neural masses (SNMs), rosette masses were sliced and cultured in petri dishes with N2bF medium. SNMs were no larger than 500 UM in size and were sliced and cultured for 3 to 4 passages. After subculture of SNM, the clumps were broken into small pieces using a tungsten mesh (Nilaco) for the neural progenitor cell (NPC) culture step, and then attached to a PLO/FN-coated dish and cultured in N2bF medium. […]
The effect of the compound of formula (1a-1) on differentiation into neurons was evaluated by comparing the expression of tyrosine hydroxylase (TH) and dopamine transporter (DAT) depending on the presence or absence of treatment with the compound of formula (1a-1).

[5] = system: α-synuclein; test: α-synuclein expression in differentiated SH-SY5Y dopaminergic neurons by western blot; type: cell-based, human; settings: FIG. 6
Description: To analyze the effect on the expression of tyrosine hydroxylase (TH) and α-synuclein as neuron-specific proteins, western blot was performed.
SH-SY5Y cell line was treated with retinoic acid and 12-O-tetradecanoylphorbol-13-acetate (TPA) to induce differentiation into TH-secreting neurons for 6 days.
Differentiated dopaminergic neurons were lysed in PRO-PREP (Intronbio), a cell lysis solution containing protease inhibitor cocktail (Gendepot), and electrophoresed in 10% SDS polyacrylamide gels at 20 μg/well. Transfer was performed using PVDF (Merck millipore) as a membrane, and tyrosine hydroxylase antibody, «-synuclein antibody (Cell signaling), and β-actin antibody (Santa Cruz) were used for reaction for more than 2 hours. Protein expression was detected by staining with ECL substrate (Biorad) for development and graphed using the image J program.

[6] = system: mouse organs; test: In vivo permeability of mouse organs after CLP (Evans blue dye); settings: treated at 6 and 16 hours after CLP, EBD i.v. at 18 hours; FIG. 11C
Description: Permeability was measured by an in vitro method using cell culture and in vivo method using Evans blue dye. To increase permeability, LPS was used in the in vitro method and CLP treatment was used in the in vivo method.
To measure permeability by an in vivo method, the compound of formula (1a-1) was treated at 6 and 16 hours after CLP treatment in the same manner as in Experimental Example 7 above, and 200 μl of a 0.5% Evans blue dye (EBD) solution was administered intravenously at 18 hours, circulated for 1 hour, and organs were harvested to visually confirm the presence of dye. The organs were then homogenized in a homogenizer to extract the dye at 55 °C for 48 hours, and permeability was determined by measuring absorbance at 620 nm.

CCCCCCCCCCCCCC[C@H]1OP(=O)(O)O[C@H]1[C@@H](N)CO.Cl [formula (1a-1), (4S,5R)-4-((S)-1-amino-2-hydroxyethyl)-2-hydroxy-5-tetradecyl-1,3,2-dioxaphosphoran-2-oxide hydrochloride]
concentration of maximum SIRT1 expression [1]: 100 ng/mL | red fluorescence for Tau ([2]; 1 week and 4 weeks after): negligible red fluorescence for mAβ and Tau | expression of Tau protein [2]: significantly reduced | proliferation of nerve cells ([3]; 15.6 nM to 500 nM): proliferation of nerve cells increases with increasing concentrations | concentration of maximum proliferative potency [3]: ~100 nM | differentiation of pluripotent stem cells into dopaminergic neurons [4]: can promote the differentiation of pluripotent stem cells into dopaminergic neurons | expression of α-synuclein ([5]; differentiated dopaminergic neurons treated with rotenone (RT)): the expression of α-synuclein increased by rotenone was decreased | effectiveness relative to resveratrol (control drug), α-synuclein expression ([5]; rotenone-treated differentiated dopaminergic neurons): more effective than resveratrol | amount of Evans blue dye (EBD) in each organ [6]: returns to normal
